Values after ≈ are worked out from the molar mass of the structure shown. Where two headings read alike, the source gives them in different places.
What was measured:
[1] = Metabolic stability in liver microsomes, dog; format: in vitro ADME
Experimental: (§1) Microsomes were taken out from the −80° C. refrigerator, rapidly melted in a 37° C. water bath and placed on ice until ready to use. The test article was diluted with DMSO to prepare a 10 mM stock solution, and then diluted with acetonitrile to a 0.5 mM secondary stock solution. […] NADPH was diluted with Buffer C to a working solution of 6 mM for the starter solution. An acetonitrile solution containing an internal standard was prepared as the precipitant, and Verapamil-HCl was chosen as the internal standard at a concentration of 4 ng/ml. […] A separate plate with pointed bottom wells, noted as a precipitation plate, was added with 135 μL precipitant per well; 0 h samples were transferred to the plate after 10 min incubation and 15 μL of starter solution was added; the plate was placed on ice before centrifugation. The diluted starter solution was added in sufficient quantity to the dispensing plate to facilitate the multichannel pipette aspiration operation. The reaction was carried out on a warm incubation shaker and 15 μL of starter solution/sample is added to the plate using a multichannel pipette. The reaction was mixed with a slight shake to initiate the reaction, which was accurately timed and recorded using a timer; After the reaction time had elapsed, all the solution in the plate was aspirated using the multichannel pipette and added to the precipitation plate to terminate the reaction at that point in time. After all reactions had been terminated, the plates were shaken for ten minutes on a plate shaker at 600 rpm to precipitate the protein. The plate was centrifuged at 4° C. for 15 minutes at maximum rpm. 80 μL of supernatant was taken, 320 μL of pure water was added and mixed for LC-MS analysis.

[2] = Metabolic stability in liver microsomes, mouse; format: in vitro ADME
Experimental: as §1, with “Test Example 3: Evaluation of the Metabolic Stability of Liver Microsomes (Mouse and Human) In Vitro Microsomes” for “Microsomes”

[3] = Pharmacokinetics on single dose in Beagle dogs (iv and po); format: in vivo, male Beagle dogs
Experimental: Pharmacokinetic properties of the drug in male Beagle dogs were evaluated by the same method with in vivo pharmacokinetic study with mice. The basic information is as follows: • Beagle: weighing 8-11 kg, purchased from Jiangsu Marshall Biotechnology Co., Ltd. • Dosage: 2 mg/kg (intravenous injection); 10 mg/kg (oral) • Solvent: 5% DMSO+5% Solutol+90% (20% HP-β-CD in Saline)

[4] = rat, in vivo; for Death Numbers / Death Rate: SD, 14 days
[5] = Metabolic stability in liver microsomes, monkey; format: in vitro ADME
Experimental: as §1

[6] = Saturated solubility in buffer at different pH; format: physicochemical; conditions: for solubility at 24 h: buffer solution, aqueous buffer, thermodynamic from solid
Experimental: The compound was placed in a buffer solution and shaken at constant temperature for 24 h. […] Chromatographic conditions: C18 column, mobile phase A: 0.02 M potassium dihydrogen phosphate:acetonitrile=90:10, mobile phase B: acetonitrile; V: 1.0 ml/min, T: 35° C., λ: 210 nm.

[7] = Metabolic stability in liver microsomes, rat; format: in vitro ADME
Experimental: as §1

[8] = test system: human pancreatic cancer BxPC3 cells xenograft; assay: Anti-tumor efficacy, BxPC3 xenograft (CDX model); format: in vivo, female BALB/c nude mice; conditions: after 40 days
Experimental: (§2) Experimental method: BALB/c nude mice (provided by Charles River) were selected, 7-8 weeks old and weighing 19-22 g.
(§3) The prepared and cultured BxPC3 cells were counted, and 1×10^7 BxPC3 cells were mixed in 0.1 mL PBS solution and inoculated subcutaneously on the right wing of mice. When the cells became tumors and the average tumor volume reached 190 mm^3, they began to be grouped and administered. […] The experimental indicator was to check whether the tumor growth was inhibited. The formula for calculating the tumor volume was: V=0.5a×b^2, where a and b respectively indicated the long and short diameters of the tumor.
(§4) The anti-tumor effects of the compounds were evaluated by TGI (%).

[9] = test system: human colon cancer HT-29 cells xenograft; assay: Anti-tumor efficacy, HT-29 xenograft (CDX model); format: in vivo, female BALB/c nude mice; conditions: HT-29 model, after 24 days
Experimental: as §2
as §3, with “HT-29” for “BxPC3”, “5×10^6 HT-29” for “1×10^7 BxPC3”, “120” for “190”
as §4

## C=CCn1c(=O)c2cnc(Nc3ccc(N4CCN(C)CC4)cc3)nc2n1-c1cccc(C(C)(C)O)n1 [AZD1775, reference compound]
[1]; read-out: T1/2 liver microsomes Dog
  half-life at 1 µM: 0.179 h
[2]; read-out: T1/2 liver microsomes Mouse
  half-life at 1 µM: 0.433 h
[3]; iv 2 mg/kg
  Vss: 3.01 L/kg
[3]; male, dog, plasma, iv 2 mg/kg
  AUC(0-t): 877 ng·h/mL
  clearance: 44 mL/min/kg
  half-life: 1.03 h
[3]; male, dog, plasma, po 10 mg/kg
  AUC(0-t): 1620 ng·h/mL
  half-life: 2.34 h
[3]; male, dog, plasma, po 10 mg/kg, read-out: Cmax
  Cmax: 405 ng/mL
[3]; male, dog, plasma, po 10 mg/kg, read-out: Tmax
  Tmax: 1.67 h
[3]; po 10 mg/kg
  F: 37.9%
[4]; female, 100 mg/kg
  Death Numbers: 0
  Death Rate: 0%
[4]; female, 200 mg/kg
  Death Numbers: 0
  Death Rate: 0%
[4]; female, 300 mg/kg
  Death Numbers: 2
  Death Rate: 67%
[4]; male, 100 mg/kg
  Death Numbers: 0
  Death Rate: 0%
[4]; male, 200 mg/kg
  Death Numbers: 0
  Death Rate: 0%
[4]; male, 300 mg/kg
  Death Numbers: 0
  Death Rate: 0%
[5]; read-out: T1/2 liver microsomes Monkey
  half-life at 1 µM: 0.335 h
[6]; pH 5.0, 37° C., read-out: Saturated solubility pH 5.0
  solubility at 24 h: 410 µg/mL (≈ 819 µM)
[6]; pH 6.5, 37° C., read-out: Saturated solubility pH 6.5
  solubility at 24 h: 50 µg/mL (≈ 99.9 µM)
[6]; pH 7.4, 37° C., read-out: Saturated solubility pH 7.4
  solubility at 24 h: 20 µg/mL (≈ 40 µM)
[7]; read-out: T1/2 liver microsomes Rat
  half-life at 1 µM: 0.635 h
[8]; 60 mg/kg qd
  TGI: 57.6%
[9]; 60 mg/kg qd
  TGI: 54.5%

## [2H][C@]1(O)c2nc(-n3c4nc(Nc5ccc(N6CCC7(CCN(C)CC7)CC6)cc5)ncc4c(=O)n3CC=C)ccc2CCC12CC2 [Compound 37b]
[1]
  T1/2 liver microsomes Dog: 1.16 h
[2]
  T1/2 liver microsomes Mouse: 0.63 h
[3]; iv 2 mg/kg
  AUClast: 1602 ng·h/mL
  Cl: 21.8 mL/min/kg
  T1/2: 5.05 h
  Vss: 5.71 L/kg
[3]; po 10 mg/kg
  AUClast: 1816 ng·h/mL
  Cmax: 171 ng/mL
  F: 22.8%
  T1/2: 4.69 h
  Tmax: 2.00 h
[4]
  Maximum tolerated dose (in words): higher than that of the control compound AZD1775
[5]
  T1/2 liver microsomes Monkey: 0.633 h
[6]; pH 5
  Saturated solubility pH 5.0: 0.37 mg/mL
[6]; pH 6.5
  Saturated solubility pH 6.5: 0.37 mg/mL
[6]; pH 7.4
  Saturated solubility pH 7.4: 0.62 mg/mL
[7]
  T1/2 liver microsomes Rat: >2 h
[8]; 30 mg/kg qd
  TGI: 70.1%
[8]; 60 mg/kg qd
  TGI: 72.4%
[8]; 120 mg/kg qd
  TGI: 100.9%
[9]; 30 mg/kg qd
  TGI: 34.7%
[9]; 60 mg/kg qd
  TGI: 57.7%
[9]; 120 mg/kg qd
  TGI: 100.0%

— patent US20250304587A1, “WEE1 INHIBITOR, PREPARATION THEREFOR AND USE THEREOF” (JIANGSU TASLY DIYI PHARMACEUTICAL CO., LTD., priority 2022, published 2025)
